Literature values in patent US20080069886A1, “Spironolactone nanoparticles, compositions and methods related thereto” (JAGOTEC AG, priority 2001, published 2008).

solubility in water: 2.8 mg/100 ml
Structure (SMILES): CC(=O)S[C@@H]1CC2=CC(=O)CC[C@]2(C)[C@H]2CC[C@@]3(C)[C@@H](CC[C@@]34CCC(=O)O4)[C@H]12 [Spironolactone]
